Some test systems named below: HL-60(TB) leukemia; UACC-257 melanoma; K-562 leukemia; NCI/ADR-RES ovarian; HCT-116 colon; NCI-H460 lung; SW-620 colon; MDA-MB-231 breast; DU-145 prostate; ACHN renal; T-47D breast; MCF7 breast; OVCAR-3 ovarian; MDA-N; 786-0 renal; RXF 393 renal; UO-31 renal; HOP-62 NSCLC; OVCAR-4 ovarian; MALME-3M melanoma.
Holding throughout (assay): NCI tumour cell line growth inhibition, 48 h

Each structure is given as a SMILES string.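 Exposure lasted 48 hours, with cells grown in 96-well plates and compounds tested at five concentrations. The concentration for full growth arrest is given as TGI.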

Turning to `CC(=O)OC(OC(C)=O)c1c2ccccc2cc2ccccc12`, the TGI in the experiment with HL-60(TB) leukemia was more than 100 µM; in the experiment on UACC-257 melanoma it was 41 µM; in the experiment on K-562 leukemia it was 27.8 µM; in the experiment on NCI/ADR-RES ovarian, 46.7 µM; in the experiment with HCT-116 colon, 28.3 µM; in the experiment with NCI-H460 lung, 31.8 µM. The TGI is more than 100 µM in the experiment on SW-620 colon; 40.1 µM in the experiment with MDA-MB-231 breast; more than 100 µM in the experiment on DU-145 prostate; 61.4 µM with ACHN renal; 85.2 µM with T-47D breast; 40.7 µM in the experiment on MCF7 breast. The TGI worked out at 67.3 µM with OVCAR-3 ovarian; 63.7 µM with MDA-N; 43.5 µM in the experiment on 786-0 renal; 31 µM with RXF 393 renal; 53 µM in the experiment with UO-31 renal.
In the case of `Nc1nncc2n[nH]nc12`, the TGI in the experiment on HL-60(TB) leukemia, in the experiment with UACC-257 melanoma, in the experiment with NCI/ADR-RES ovarian, in the experiment with HCT-116 colon, in the experiment with NCI-H460 lung and with SW-620 colon was more than 100 µM in each case. Further, the TGI in the experiment on MDA-MB-231 breast, with DU-145 prostate, in the experiment on ACHN renal, with T-47D breast, with HOP-62 NSCLC and with MCF7 breast was more than 100 µM each time. Also, the TGI in the experiment on OVCAR-3 ovarian, in the experiment on MDA-N, in the experiment with 786-0 renal, in the experiment on RXF 393 renal and with UO-31 renal was more than 100 µM throughout.
Regarding `CC(=O)OCCCCn1nncc1Cn1ccc(=O)n(Cc2cnnn2CCCCOC(C)=O)c1=O`, the TGI with OVCAR-4 ovarian, in the experiment on UACC-257 melanoma, in the experiment with NCI/ADR-RES ovarian, in the experiment with HCT-116 colon, in the experiment on SW-620 colon and in the experiment with MDA-MB-231 breast was more than 100 µM in each case. The TGI in the experiment with DU-145 prostate, in the experiment on ACHN renal, in the experiment on MALME-3M melanoma, in the experiment on T-47D breast, in the experiment on HOP-62 NSCLC and in the experiment with MCF7 breast was more than 100 µM throughout. In addition, the TGI with OVCAR-3 ovarian, in the experiment with MDA-N, in the experiment on 786-0 renal, in the experiment on RXF 393 renal and in the experiment on UO-31 renal was more than 100 µM each time.
In the case of `Cc1cc2c3c(nc2c2cc[nH]c(C)c12)CCCC3`, the TGI in the experiment on OVCAR-4 ovarian stood at 6.45 µM; in the experiment with HL-60(TB) leukemia it was 3.76 µM; with UACC-257 melanoma, 3.66 µM; in the experiment on K-562 leukemia it was 5.65 µM; in the experiment on NCI/ADR-RES ovarian, 19.5 µM; in the experiment with HCT-116 colon, 3.35 µM. Moreover, the TGI is 4.27 µM in the experiment on NCI-H460 lung; 3.79 µM in the experiment with SW-620 colon; 3.17 µM in the experiment on MDA-MB-231 breast; 11.1 µM in the experiment on DU-145 prostate; 15 µM in the experiment with ACHN renal; 2.74 µM with MALME-3M melanoma. In addition, the TGI in the experiment with T-47D breast is 4.53 µM; with HOP-62 NSCLC it was 3.62 µM; with MCF7 breast it was 3.02 µM; in the experiment with OVCAR-3 ovarian, 5.07 µM; with MDA-N, 3.32 µM; in the experiment with 786-0 renal it was 3.04 µM. In the experiment on UO-31 renal, the TGI is 6.91 µM.
Take `Cc1cn(CCCCOC(=O)NC(CCCN=C(N)N)C(=O)O)c(=O)[nH]c1=O` (stereo unspecified): the TGI with OVCAR-4 ovarian, in the experiment on HL-60(TB) leukemia, in the experiment with UACC-257 melanoma, with K-562 leukemia, in the experiment with NCI/ADR-RES ovarian and in the experiment with HCT-116 colon was more than 100 µM in each case. Further, the TGI in the experiment with NCI-H460 lung, in the experiment with SW-620 colon, with MDA-MB-231 breast, in the experiment with DU-145 prostate, in the experiment with ACHN renal and with T-47D breast was more than 100 µM in each case. The TGI in the experiment with HOP-62 NSCLC, in the experiment on MCF7 breast, in the experiment with OVCAR-3 ovarian, with MDA-N, in the experiment with 786-0 renal and in the experiment with RXF 393 renal was more than 100 µM throughout. The same compound had a TGI with UO-31 renal of more than 100 µM.
Consider `Cc1nc(-c2cccnc2)sc1C(=O)CC(=O)C(=O)Nc1cccc(NC(=O)C(=O)CC(=O)c2sc(-c3cccnc3)nc2C)n1`, for which the TGI with OVCAR-4 ovarian, in the experiment with HL-60(TB) leukemia, in the experiment on UACC-257 melanoma, with K-562 leukemia, with NCI/ADR-RES ovarian and in the experiment on HCT-116 colon was more than 100 µM in each case. Also, the TGI in the experiment on NCI-H460 lung, in the experiment with SW-620 colon, in the experiment on MDA-MB-231 breast, with DU-145 prostate, in the experiment with ACHN renal and in the experiment on MALME-3M melanoma was more than 100 µM throughout. The TGI in the experiment with T-47D breast, in the experiment with MCF7 breast, in the experiment on OVCAR-3 ovarian, in the experiment on MDA-N, in the experiment on 786-0 renal and in the experiment on RXF 393 renal was more than 100 µM in each case. The compound further gave a TGI in the experiment with UO-31 renal of more than 100 µM.
With `CN1/C(=C\N=O)C(C)(C)N(O)C1(C)C`, the TGI in the experiment with OVCAR-4 ovarian, in the experiment with HL-60(TB) leukemia, with UACC-257 melanoma, with K-562 leukemia, in the experiment with NCI/ADR-RES ovarian and in the experiment with HCT-116 colon was more than 100 µM throughout. Also, the TGI in the experiment with NCI-H460 lung, in the experiment with SW-620 colon, in the experiment on MDA-MB-231 breast, in the experiment on DU-145 prostate, in the experiment with ACHN renal and in the experiment on MALME-3M melanoma was more than 100 µM each time. Moreover, the TGI with T-47D breast, with HOP-62 NSCLC, with MCF7 breast, in the experiment with OVCAR-3 ovarian, in the experiment with MDA-N and in the experiment with 786-0 renal was more than 100 µM throughout. The compound further yielded a TGI with UO-31 renal of more than 100 µM.
Take `COC(=O)c1ccc(NCC2=CC(=O)C=CC2=O)cc1O`: the TGI is 30.3 µM with OVCAR-4 ovarian; 30.6 µM with UACC-257 melanoma; more than 100 µM in the experiment on K-562 leukemia; 47 µM in the experiment with NCI/ADR-RES ovarian; 33.8 µM in the experiment on HCT-116 colon; 43.4 µM in the experiment with NCI-H460 lung. Also, the TGI was more than 100 µM in the experiment on SW-620 colon; 34.7 µM in the experiment on MDA-MB-231 breast; 29 µM in the experiment with DU-145 prostate; 26.8 µM in the experiment on ACHN renal; 28.6 µM in the experiment with MALME-3M melanoma; 47.1 µM in the experiment with T-47D breast. Besides, the TGI was determined as 34.5 µM in the experiment on HOP-62 NSCLC; 76.3 µM with MCF7 breast; 24.7 µM with OVCAR-3 ovarian; 35.8 µM in the experiment on MDA-N; 31.4 µM in the experiment on 786-0 renal; 44 µM in the experiment with RXF 393 renal. Further, the TGI with UO-31 renal is 25.4 µM.
